Test results: patent US20240002936A1, “USE OF BRAIN ORGANOIDS AND SINGLE CELL GENOMICS TO UNDERSTAND AND TREAT NEURODEVELOPMENTAL AND NEUROPSYCHIATRIC DISORDERS” (President and Fellows of Harvard College, priority 2020, published 2024)

Legend:
[1] = system: PGP1 SUV420H1 control and mutant organoids; assay: Calcium imaging of spontaneous neuronal activity in intact brain organoids; format: cell-based, human; settings: 20 μM NBQX
human brain organoids = format: cell-based

| Compound | calcium activity after blockade of excitatory synapses with NBQX, SUV420H1 mutant organoids ([1]; PGP1 SUV420H1+/- mutant organoids) | calcium activity after blockade of excitatory synapses with NBQX, control organoids ([1]; PGP1 control organoids) | network bursting upon bath application of NBQX ([1]; four month organoids (128 d.i.v.)) | trains of action potentials composing network bursting, sensitivity to TTX (human brain organoids) |
| --- | --- | --- | --- | --- |
| NS(=O)(=O)c1cccc2c1c([N+](=O)[O-])cc1[nH]c(=O)c(=O)[nH]c12 [NBQX, 2,3-dioxo-6-nitro-1,2,3,4-tetrahydrobenzo[f]quinoxaline-7-sulfonamide] | no calcium transients | residual uncorrelated activity | abolished | – |
| NC1=N[C@H](O)[C@H]2[C@H]3O[C@]4(O)O[C@@H]([C@@H](O)[C@@]2(N1)[C@@H]4O)[C@]3(O)CO [TTX, tetrodotoxin] | – | – | – | sensitive |
